# Measured values as given in patent publication US10533010B2, “Substituted indole Mcl-1 inhibitors” (Vanderbilt University, priority 2014, dated 2020).
# Biological target: recombinant Mcl-1 (residues 172-327) (Homo sapiens (Human), UniProt Q07820)
# Assay: Fluorescence polarization anisotropy competition assay (FITC-Bak or FITC-Bim BH3 peptide) with Mcl-1
# Format: binding
# Settings: Table 2; Ki bins given in nM; FITC-Bak or FITC-Bim peptide competition; Ki converted from IC50; read-out: Ki for Inhibition of Mcl-1
# Sequence of recombinant Mcl-1 (residues 172-327) (Q07820 172-327): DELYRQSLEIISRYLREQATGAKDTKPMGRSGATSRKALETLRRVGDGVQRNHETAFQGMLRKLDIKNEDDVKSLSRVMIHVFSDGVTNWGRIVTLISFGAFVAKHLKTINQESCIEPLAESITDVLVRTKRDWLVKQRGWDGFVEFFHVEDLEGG
row,Compound,Ki
1,"Cc1cc(OCCCc2c(C(=O)NCC(=O)NS(=O)(=O)c3cccnc3)[nH]c3ccccc23)cc(C)c1Cl [I-6, 3-(3-(4-chloro-3,5-dimethylphenoxy)propyl)-N-(2-oxo-2-(pyridine-3-sulfonamido)ethyl)-1H-indole-2-carboxamide]",301 to 500 nM
2,"Cc1cc(CN2CCCn3c(c(CCCOc4cc(C)c(Cl)c(C)c4)c4ccc(Cl)c(-c5c(C)nn(C)c5C)c43)C2=O)cc(C(=O)O)c1 [I-297, 3-((8-chloro-11-(3-(4-chloro-3,5-dimethylphenoxy)propyl)-1-oxo-7-(1,3,5-trimethyl-1H-pyrazol-4-yl)-4,5-dihydro-1H-[1,4]diazepino[1,2-a]indol-2(3H)-yl)methyl)-5-methylbenzoic acid]",51 to 100 nM
3,"Cc1cc(OCCCc2c3n(c4c(-c5c(C)nn(C)c5C)c(Cl)ccc24)CCCN(Cc2cc(C(=O)O)cc(-c4ccc(OCc5ccccc5C(F)(F)F)cc4)c2)C3=O)cc(C)c1Cl [I-308, 5-((8-chloro-1-(3-(4-chloro-3,5-dimethylphenoxy)propyl)-1-oxo-7-(1,3,5-trimethyl-1H-pyrazol-4-yl)-4,5-dihydro-1H-[1,4]diazepino[1,2-a]indol-2(3H)-yl)methyl)-4′-((2-(trifluoromethyl)benzyl)oxy)-[1,1′-biphenyl]-3-carboxylic acid]",51 to 100 nM
4,"Cc1cc(OCCCc2c(C(=O)NCCS(=O)(=O)NC(=O)CC34CC5CC(CC(C5)C3)C4)[nH]c3ccccc23)cc(C)c1Cl [I-54, N-(2-(N-(2-((3r,5r,7r)-adamantan-1-yl)acetyl)sulfamoyl)ethyl)-3-(3-(4-chloro-3,5-dimethylphenoxy)propyl)-1H-indole-2-carboxamide]",501 to 999 nM
5,"Cc1cc(OCCCc2c(C(=O)NCC(=O)NS(=O)(=O)C3CC3)[nH]c3ccccc23)cc(C)c1Cl [I-9, 3-(3-(4-chloro-3,5-dimethylphenoxy)propyl)-N-(2-(cyclopropanesulfonamido)-2-oxoethyl)-1H-indole-2-carboxamide]",501 to 999 nM
6,"Cc1cc(OCCCc2c3n(c4c(-c5c(C)nn(C)c5C)c(Cl)ccc24)CCCN(c2cc(C(=O)O)cc(-c4ccncc4)c2)C3=O)cc(C)c1Cl [I-231, 3-(8-chloro-11-(3-(4-chloro-3,5-dimethylphenoxy)propyl)-1-oxo-7-(1,3,5-trimethyl-1H-pyrazol-4-yl)-4,5-dihydro-1H-[1,4]diazepino[1,2-a]indol-2(3H)-yl)-5-(pyridin-4-yl)benzoic acid]",< 50 nM
7,"Cc1cc(OCCCc2c(C(=O)N3CCc4ccc(C(=O)O)cc43)[nH]c3c(-c4c(C)nn(C)c4C)c(Cl)ccc23)cc(C)c1Cl [I-192, 1-(6-chloro-3-(3-(4-chloro-3,5-dimethylphenoxy)propyl)-7-(1,3,5-trimethyl-1H-pyrazol-4-yl)-1H-indole-2-carbonyl)indoline-6-carboxylic acid]",< 50 nM
8,"Cc1cc(OCCCc2c3n(c4c(-c5c(C)nn(C)c5C)c(Cl)ccc24)C(C)CN(Cc2ccc(C(=O)O)cc2)C3=O)cc(C)c1Cl (stereo not drawn) [I-130, 4-((7-chloro-10-(3-(4-chloro-3,5-dimethylphenoxy)propyl)-4-methyl-1-oxo-6-(1,3,5-trimethyl-1H-pyrazol-4-yl)-3,4-dihydropyrazino[1,2-a]indol-2(1H)-yl)methyl)benzoic acid]",< 50 nM
9,"Cc1cc(OCCCc2c3n(c4c(-c5c(C)nn(C)c5C)c(Cl)ccc24)CCCN(c2cc(C(=O)O)cc(Cl)n2)C3=O)cc(C)c1Cl [I-230, 2-chloro-6-(8-chloro-11-(3-(4-chloro-3,5-dimethylphenoxy)propyl)-1-oxo-7-(1,3,5-trimethyl-1H-pyrazol-4-yl)-4,5-dihydro-1H-[1,4]diazepino[1,2-a]indol-2(3H)-yl)isonicotinic acid]",< 50 nM
10,"Cc1cc(OCCCc2c(C(=O)Nc3cccc(C#N)c3)[nH]c3c(-c4c(C)nn(C)c4C)c(Cl)ccc23)cc(C)c1Cl [I-352, 6-chloro-3-(3-(4-chloro-3,5-dimethylphenoxy)propyl)-N-(3-cyanophenyl)-7-(1,3,5-trimethyl-1H-pyrazol-4-yl)-1H-indole-2-carboxamide]",51 to 100 nM
11,"Cc1cc(OCCCc2c3n(c4c(-c5c(C)nn(C)c5C)c(Cl)ccc24)C(C)[C@@H](C)N(c2ccc(C(=O)O)c4ncccc24)C3=O)cc(C)c1Cl (stereo partly drawn) [I-164, 5-((3R)-7-chloro-10-(3-(4-chloro-3,5-dimethylphenoxy)propyl)-3,4-dimethyl-1-oxo-6-(1,3,5-trimethyl-1H-pyrazol-4-yl)-3,4-dihydropyrazino[1,2-a]indol-2(1H)-yl)quinoline-8-carboxylic acid]",51 to 100 nM

# Continued, values first:
row,Ki,Compound
1,< 50 nM,"Cc1cc(OCCCc2c3n(c4c(-c5c(C)nn(C)c5C)c(Cl)ccc24)CCCN(c2cc(C(=O)O)cc4c2c(Br)cn4C)C3=O)cc(C)c1Cl [I-256, 3-bromo-4-(8-chloro-11-(3-(4-chloro-3,5-dimethylphenoxy)propyl)-1-oxo-7-(1,3,5-trimethyl-1H-pyrazol-4-yl)-4,5-dihydro-1H-[1,4]diazepino[1,2-a]indol-2(3H)-yl)-1-methyl-1H-indole-6-carboxylic acid]"
2,< 50 nM,"Cc1cc(OCCCc2c3n(c4c(-c5c(C)nn(C)c5C)c(Cl)ccc24)CCCN(c2cc(C(=O)O)c4cc[nH]c4c2)C3=O)cc(C)c1Cl [I-253, 6-(8-chloro-11-(3-(4-chloro-3,5-dimethylphenoxy)propyl)-1-oxo-7-(1,3,5-trimethyl-1H-pyrazol-4-yl)-4,5-dihydro-1H-[1,4]diazepino[1,2-a]indol-2(3H)-yl)-1H-indole-4-carboxylic acid]"
3,< 50 nM,"Cc1cc(OCCCc2c3n(c4c(-c5c(C)nn(C)c5C)c(Cl)ccc24)CCCN(c2cccc4c2ccn4C)C3=O)cc(C)c1Cl [I-247, 8-chloro-1-(3-(4-chloro-3,5-dimethylphenoxy)propyl)-2-(1-methyl-1H-indol-4-yl)-7-(1,3,5-trimethyl-1H-pyrazol-4-yl)-2,3,4,5-tetrahydro-1H-[1,4]diazepino[1,2-a]indol-1-one]"
4,< 50 nM,"Cc1cc(OCCCc2c3n(c4c(-c5c(C)nn(C)c5C)c(Cl)ccc24)CCCN(c2cc(C(=O)O)cc4c2c(Cl)cn4C)C3=O)cc(C)c1Cl [I-255, 3-chloro-4-(8-chloro-11-(3-(4-chloro-3,5-dimethylphenoxy)propyl)-1-oxo-7-(1,3,5-trimethyl-1H-pyrazol-4-yl)-4,5-dihydro-1H-[1,4]diazepino[1,2-a]indol-2(3H)-yl)-1-methyl-1H-indole-6-carboxylic acid]"
5,< 50 nM,"Cc1cc(OCCCc2c3n(c4c(-c5c(C)nn(C)c5C)c(Cl)ccc24)C[C@@H](C)NC3=O)cc(C)c1Cl [I-109, (R)-7-chloro-10-(3-(4-chloro-3,5-dimethylphenoxy)propyl)-3-methyl-6-(1,3,5-trimethyl-1H-pyrazol-4-yl)-3,4-dihydropyrazino[1,2-a]indol-1(2H)-one]"
6,< 50 nM,"Cc1cc(OCCCc2c3n(c4c(-c5c(C)nn(C)c5C)c(Cl)ccc24)CCCN(c2cc(C(=O)O)cc4nnn(C)c24)C3=O)cc(C)c1Cl [I-362, 7-(8-chloro-11-(3-(4-chloro-3,5-dimethylphenoxy)propyl)-1-oxo-7-(1,3,5-trimethyl-1H-pyrazol-4-yl)-4,5-dihydro-1H-[1,4]diazepino[1,2-a]indol-2(3H)-yl)-1-methyl-1H-benzo[d][1,2,3]triazole-5-carboxylic acid]"
7,< 50 nM,"Cc1cc(OCCCc2c3n(c4c(-c5c(C)nn(C)c5C)c(Cl)ccc24)CCN(Cc2ccc(C(=O)O)o2)C3=O)cc(C)c1Cl [I-143, 5-((7-chloro-10-(3-(4-chloro-3,5-dimethylphenoxy)propyl)-1-oxo-6-(1,3,5-trimethyl-1H-pyrazol-4-yl)-3,4-dihydropyrazino[1,2-a]indol-2(1H)-yl)methyl)furan-2-carboxylic acid]"
8,< 50 nM,"Cc1cc(OCCCc2c3n(c4c(-c5c(C)nn(C)c5C)c(Cl)ccc24)CCN(Cc2cccc(C(=O)O)c2)C3=O)cc(C)c1Cl [I-141, 3-((7-chloro-10-(3-(4-chloro-3,5-dimethylphenoxy)propyl)-1-oxo-6-(1,3,5-trimethyl-1H-pyrazol-4-yl)-3,4-dihydropyrazino[1,2-a]indol-2(1H)-yl)methyl)benzoic acid]"
9,< 50 nM,"Cc1cc(OCCCc2c3n(c4c(-c5c(C)nn(C)c5C)c(Cl)ccc24)CCCN(c2ncc(C(=O)O)s2)C3=O)cc(C)c1Cl [I-358, 2-(8-chloro-11-(3-(4-chloro-3,5-dimethylphenoxy)propyl)-1-oxo-7-(1,3,5-trimethyl-1H-pyrazol-4-yl)-4,5-dihydro-1H-[1,4]diazepino[1,2-a]indol-2(3H)-yl)thiazole-5-carboxylic acid]"
10,< 50 nM,"Cc1cc(OCCCc2c3n(c4c(-c5c(C)nn(C)c5C)c(Cl)ccc24)C(C)CN(Cc2ccc(C(=O)O)cn2)C3=O)cc(C)c1Cl (stereo not drawn) [I-129, 6-((7-chloro-10-(3-(4-chloro-3,5-dimethylphenoxy)propyl)-4-methyl-1-oxo-6-(1,3,5-trimethyl-1H-pyrazol-4-yl)-3,4-dihydropyrazino[1,2-a]indol-2(1H)-yl)methyl)nicotinic acid]"
11,< 50 nM,"Cc1cc(OCCCc2c3n(c4c(-c5c(C)nn(C)c5C)c(Cl)ccc24)CCCN(c2cc(C(=O)O)cc(-c4cccnc4C)c2)C3=O)cc(C)c1Cl [I-232, 3-(8-chloro-11-(3-(4-chloro-3,5-dimethylphenoxy)propyl)-1-oxo-7-(1,3,5-trimethyl-1H-pyrazol-4-yl)-4,5-dihydro-1H-[1,4]diazepino[1,2-a]indol-2(3H)-yl)-5-(2-methylpyridin-3-yl)benzoic acid]"
12,< 50 nM,"Cc1cc(OCCCc2c(C(=O)Nc3cccc(C(=O)O)c3)[nH]c3c(-c4c(C)nn(C)c4C)cccc23)cc(C)c1Cl [I-196, 3-(3-(3-(4-chloro-3,5-dimethylphenoxy)propyl)-7-(1,3,5-trimethyl-1H-pyrazol-4-yl)-1H-indole-2-carboxamido)benzoic acid]"
13,< 50 nM,"Cc1cc(OCCCc2c3n(c4c(-c5c(C)nn(C)c5C)c(Cl)ccc24)CCN(c2ccc(C(=O)O)c4ncccc24)C3=O)cc(C)c1Cl [I-161, 5-(7-chloro-10-(3-(4-chloro-3,5-dimethylphenoxy)propyl)-1-oxo-6-(1,3,5-trimethyl-1H-pyrazol-4-yl)-3,4-dihydropyrazino[1,2-a]indol-2(1H)-yl)quinoline-8-carboxylic acid]"
